Results as given in PubChem BioAssay (NCI).
Where “and” joins values, the source holds several entries; their conditions need not be identical. Identical values can stand only once.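 Method: 48-hour compound exposure of cells in 96-well plates, five concentrations, linear interpolation of endpoints. At the GI50, growth is halved. TGI denotes the concentration required for complete inhibition of growth.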

Columns and labels:
Experiment in all cases: NCI anticancer screen, dose series, 48 h
[1] = test system: SF-295 CNS
[2] = test system: NCI-H226 lung
[3] = test system: SK-MEL-28 melanoma
[4] = test system: RPMI-8226 leukemia
[5] = test system: HCT-116 colon
[6] = test system: MCF7 breast
[7] = test system: A549 NSCLC
[8] = test system: A498 renal
[9] = test system: SK-MEL-2 melanoma
[10] = test system: NCI/ADR-RES ovarian

Row | SMILES | TGI [1] | TGI [2] | TGI [3] | TGI [4] | TGI [5] | TGI [6] | TGI [7] | TGI [8] | TGI [9] | TGI [10] | GI50 [1] | GI50 [2] | GI50 [3] | GI50 [4] [µM] | GI50 [5] [µM] | GI50 [6] [µM] | GI50 [7] | GI50 [8] | GI50 [10] [µM] | GI50 [9] [µM]
1 | COc1cc2oc3c(c(=O)c2c(O)c1/C=C/C(C)C)C(C=C(C)C)Oc1cc(O)ccc1-3 (stereo unspecified) | 31.4 µM | 32.7 µM | 31.2 µM | 33.9 µM | 28.1 µM | 28.6 µM | 28.8 µM | 40.3 µM | 29.9 µM | 31.1 µM |  |  |  |  |  |  |  |  |  | 
2 | Nc1nc(N)c2nc3c(nc2n1)CCCCCCCCCC3 | > 100 µM | > 100 µM | > 100 µM | > 100 µM | > 100 µM | > 100 µM | > 100 µM | > 100 µM |  | > 100 µM | 0.509 µM | 19 µM | > 100 µM | > 100 | 0.379 | 2.96 | 0.407 µM | 6.9 µM | 2.4 | 
3 | CN1CCN(c2nc(-c3csc(-c4cccs4)n3)cc3ccccc23)CC1 | 3.39 µM |  | 3.24 µM | 4.98 µM | 3.36 µM | 3.2 µM | 3.55 µM | 3.27 µM | 3.48 µM | 3.92 µM | 1.82 µM |  | 1.77 µM | 2.09 | 1.76 | 1.63 | 1.76 µM | 1.47 µM | 1.93 | 1.47
4 | O=C1N(Cc2ccccc2Cl)c2ccccc2C12NN=C(c1cccc(Cl)c1)S2 (stereo unspecified) | 3.17 µM | 2.86 µM | 3.57 µM | 6.04 µM | 2.98 µM | 3.37 µM | 3.41 µM | 2.95 µM | 3.38 µM | 4.14 µM | 1.71 µM | 1.49 µM | 1.86 µM | 2.36 | 1.62 | 1.75 | 1.86 µM | 1.54 µM | 1.78 | 1.77
5 | CC1SC2(CCCCC2)N(NC(=O)c2[nH]c3ccc(Br)cc3c2-c2ccccc2)C1=O (stereo unspecified) | 46.7 µM | > 100 µM | > 100 µM | 30.2 µM | > 100 µM | > 100 µM | > 100 µM | > 100 µM | > 100 µM |  | 10.7 µM | 40.7 µM | 56.2 µM | 3.83 | 10.2 | 20.5 | 15.7 µM | > 100 µM |  | > 100
6 | CCc1nc(N)nc(N)c1-c1ccc(Cl)c(N=[N+]=[N-])c1 | > 100 µM and 82 µM | > 100 µM | > 87.7 µM and 60.5 µM | 39.2 µM and 52.1 µM | > 80.6 µM and 65.1 µM | > 76.1 µM and 56.7 µM | > 100 µM | 60.7 µM and 72.6 µM | 41.3 µM and 43.7 µM | 63.9 µM and 99.4 µM |  |  |  |  |  |  | 0.58 µM and 1.68 µM |  |  | 
7 | NC(=O)c1sc(-n2cnc3cc(C(F)(F)F)ccc32)cc1OCc1ccccc1Br | > 25 µM | > 25 µM | > 25 µM | > 25 µM | > 25 µM | > 25 µM | > 25 µM | > 25 µM | > 25 µM | > 25 µM | > 25 µM | > 17.2 µM | > 23.4 µM | > 23.6 | > 16 | > 13.4 | > 25 µM | > 25 µM | > 17.4 | > 25
8 | CCCCCCNCc1cc(C(C)(C)C)cc(CNCCCCCC)c1O | 3.16 µM | 3.36 µM | 3.27 µM | 4.05 µM | 3.07 µM | 3.17 µM | 3.08 µM | 3.47 µM | 3.52 µM | 3.24 µM | 1.64 µM | 1.69 µM | 1.83 µM | 1.96 | 1.7 | 1.71 | 1.71 µM | 2.02 µM | 1.75 | 1.98
9 | COc1ccc(CCN2CCC(CN(C)Cc3cnn(-c4ccccc4)c3)CC2)cc1 | 25.2 µM | > 100 µM | 7.53 µM | 42.1 µM | 25.6 µM | 28.2 µM | 48.9 µM | 7.78 µM | 32.8 µM | > 100 µM | 12.1 µM | 32.5 µM | 2.52 µM | 13.8 | 11.8 | 13.9 | 19.4 µM | 1.58 µM | 26.7 | 17.3
10 | COc1ccc(-c2csc(NC(=O)CN3CCN(c4cc5c(cc4F)c(=O)c(C(=O)O)cn5C4CC4)CC3)n2)cc1 | 15.9 µM | > 100 µM | > 100 µM | > 100 µM | > 100 µM | > 100 µM | > 100 µM |  | 8.28 µM |  | 2.73 µM | 4.96 µM | 3.72 µM | 2.69 | 3.1 | 2.84 | 3.47 µM |  |  | 2.58
11 | O=[N+]([O-])c1cc2no[n+]([O-])c2cc1N1CCCCC1 | 34.8 µM | > 100 µM | 32.9 µM | 6.64 µM | 5.99 µM |  | 42.8 µM | 35.2 µM | 30.5 µM | > 20.8 µM |  |  |  |  |  |  |  |  |  | 
12 | CCCCOC1OC(COC(=O)C(C)C)C(OC(=O)C(C)C)C(O)C1OC1OC(C)C(OC(=O)CCC)C(OC(=O)C(C)C)C1O (stereo unspecified) | 27.5 µM | 22.2 µM | 30 µM | 8.95 µM | 18.4 µM | 61.6 µM | 26.5 µM |  | > 100 µM | 11.7 µM | 14.4 µM | 9.64 µM | 16.2 µM | 2.27 | 6.41 | 8.4 | 13.6 µM |  | 3.85 | 36.2
13 | Cc1ccc(C2NC(=O)c3ccccc3N2)c(C)c1 (stereo unspecified) | > 35 µM | 47.8 µM | > 100 µM | 12 µM | > 100 µM | 8.34 µM | > 100 µM | 34.9 µM | 37.8 µM | 6.5 µM |  |  |  |  |  |  |  |  |  | 
14 | N#CC(C#N)=C/C=C(\Sc1ccc(F)cc1Cl)c1ccc(Cl)cc1 | 6.79 µM |  | 10.4 µM | 0.515 µM | 1.89 µM | 2.55 µM | 12.5 µM | 24 µM | 8.17 µM | 7.53 µM | 0.639 µM |  | 1.23 µM | 0.0963 | 0.366 | 0.417 | 2.22 µM | 8.97 µM | 0.791 | 1.45
15 | COc1ccc2c(c1)-c1nn(CCCN(C)C)c3ccc([N+](=O)[O-])c(c13)N2 | 3.76 µM and 3.07 µM | 3.75 µM and 6.86 µM | 7.78 µM and 12.6 µM | 25.5 µM | 4.02 µM and 4.42 µM | 2.7 µM and 10.9 µM | 2.51 µM and 2.28 µM | 3.51 µM and 8.8 µM | 4.28 µM and 4.55 µM | 2.93 µM and 1.42 µM | 0.175 µM and 0.389 µM | 0.25 µM and 0.664 µM | 0.77 µM and 1.75 µM |  |  |  | 0.164 µM and 0.368 µM | 0.458 µM and 1.54 µM |  | 
